Measured values taken from PubChem BioAssay (NCI).
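Method: 48-hour compound exposure of cells in 96-well plates, five concentrations, linear interpolation of endpoints. TGI is the concentration that stops growth completely.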

How the values were obtained:
Test in all cases: NCI tumour cell line growth inhibition, 48 h
IGROV1 ovarian = system: IGROV1 ovarian
K-562 leukemia = system: K-562 leukemia
KM12 colon = system: KM12 colon
SF-268 CNS = system: SF-268 CNS
TK-10 renal = system: TK-10 renal
UACC-62 melanoma = system: UACC-62 melanoma
CCRF-CEM leukemia = system: CCRF-CEM leukemia
NCI-H460 lung = system: NCI-H460 lung
OVCAR-3 ovarian = system: OVCAR-3 ovarian
MALME-3M melanoma = system: MALME-3M melanoma

Row | Structure (SMILES) | TGI (IGROV1 ovarian) [µM] | TGI (K-562 leukemia) [µM] | TGI (KM12 colon) [µM] | TGI (SF-268 CNS) [µM] | TGI (TK-10 renal) [µM] | TGI (UACC-62 melanoma) [µM] | TGI (CCRF-CEM leukemia) [µM] | TGI (NCI-H460 lung) [µM] | TGI (OVCAR-3 ovarian) [µM] | TGI (MALME-3M melanoma) [µM]
1 | Cc1cccc(N2CCN(S(=O)(=O)c3ccc(Cl)cc3)C2=N)c1C | 99.3 | > 100 | > 100 | > 100 | > 100 | > 100 |  |  |  | 
2 | COCCCN1C(=O)C2c3[nH]c4ccccc4c3C3CCC(C(C)(C)C)CC3C2C1=O (stereo unspecified) | > 100 | > 10 | 55.5 | > 100 | > 100 | > 10 | 52.9 | 36.2 | 35.9 | 
3 | O=C1N2CCc3c([nH]c4ccccc34)C23CC2CCCC12S3 (stereo unspecified) | > 50 | > 50 | > 50 | > 50 | > 50 | > 50 |  |  | > 50 | > 50
4 | c1csc(-c2ccc(-c3ccc(-c4cccs4)s3)s2)c1 | > 100 |  | > 100 | > 100 | > 100 | > 100 |  | > 100 | > 100 | > 100
5 | CC(=O)Nc1ncc2c(n1)-c1ccccc1OC2 | > 100 |  | > 100 | > 100 | > 100 | > 100 | > 100 | > 100 | > 100 | 
6 | BrCC[P+](c1ccccc1)(c1ccccc1)c1ccccc1 | 29.1 | 30.9 | 17.1 | 8.25 | 34.5 | 21.9 | 12.2 | 73.3 | 11.7 | 
7 | CC(=O)OCC1OC(n2c3c(c(-c4ccco4)c(C#N)c2=S)CCCC3)C(OC(C)=O)C(OC(C)=O)C1OC(C)=O (stereo unspecified) | > 31.6 |  | > 31.6 | > 31.6 | 24.8 |  |  | > 31.6 | > 31.6 | > 31.6
8 | NC(CO)c1ccccc1 (stereo unspecified) | > 100 |  | > 100 | > 100 | > 100 | > 100 | > 100 | > 100 | > 100 | > 100
9 | O=C(Nc1ccccc1)N1N=C(c2ccccc2)C1c1ccccc1 (stereo unspecified) | > 100 |  | > 100 | 50.8 | > 100 | 45.7 |  | > 100 | 42.1 | 64.2
10 | COc1cc(/C=C2\C[C@H]3[C@@H]4CC=C5C[C@@H](N6CCCC6)CC[C@]5(C)[C@H]4CC[C@]3(C)[C@H]2OC(C)=O)cc(OC)c1OC | 29.9 |  | 31.2 | 27.7 | 34.8 | 31.7 | > 100 |  | 29.8 | 38.1
11 | CN1C(=O)[C@@]2(C=CC3(CC2)OCCO3)c2ccccc21 | > 50 | > 50 | > 50 | 32.2 | > 50 | > 50 | > 50 | > 50 | > 50 | 
12 | Cc1ccc(Nc2nnc3n2S(=O)(=O)c2cc(C)c(Cl)cc2S3)cc1 | > 100 | 23.8 | > 100 | 18.4 | > 100 |  |  | > 100 | 4.63 | 
13 | COc1cc2cc3c4c(cc(OC)c(OC)c4c2cc1OC)CCN3C(=O)OCCBr | > 100 |  | > 100 | > 100 | > 100 | > 100 | 88.2 | > 100 | > 100 | > 100
14 | COc1cccc(N2N=C3c4ccccc4-n4c(nc5ccccc54)C3C2N)c1 (stereo unspecified) | > 100 |  | > 100 | > 100 | > 100 | > 100 |  | > 100 | > 100 | > 100
15 | C=C1C(=O)O[C@H]2C(=O)[C@H](C)CCC[C@@](C)(O)/C=C\C[C@@]3(C)O[C@@H]3C[C@@H]12 | 41.6 |  | 39.3 | 50.8 | 15.1 | 37.8 | 12.3 | 76.1 | 24.3 | 
16 | Cc1cnc2[nH]c(-c3ccccc3)cc(=O)c2c1 | > 100 |  | 13.9 | > 100 | 99.5 |  | 2.79 | > 47.5 |  | > 100
17 | CCOc1cc(C=O)ccc1O | > 100 | > 100 | > 100 | > 100 | > 100 |  |  | > 100 | > 100 | > 100
18 | CCOC(=O)C(Cc1c(-c2[nH]c3ccccc3c2CC(NC(=O)CNC(C)=O)C(=O)OCC)[nH]c2ccccc12)NC(=O)CNC(C)=O (stereo unspecified) | > 100 |  | > 100 | > 100 | > 100 | > 100 | > 100 | > 100 | > 100 | 38.2
19 | COc1cc([C@@H]2c3cc4c(cc3[C@@H](Nc3ccc(Cl)cc3C(=O)c3ccccc3Cl)[C@H]3COC(=O)[C@H]23)OCO4)cc(OC)c1OC |  | > 100 | 0.289 | > 100 | > 100 | > 72.4 |  |  | 6.4 | > 100
20 | OCc1ccccc1OC1OC(CO)C(O)C(O)C1O (stereo unspecified) | > 100 |  | > 100 | > 100 | > 100 | > 100 | > 100 | > 100 | > 100 | > 100
